# Measurements reported in ChEMBL document CHEMBL4346707, “Synthesis and biological evaluation of pyrazolo[3,4-b]pyridine-3-yl pyrimidine derivatives as sGC stimulators for the treatment of pulmonary hypertension” (Eur J Med Chem, 2019).
# Active and inactive are the calls of the source. The calls are words filed in the database; no cut-off is given here.
# What was measured:
# Rattus norvegicus = organism: Rattus norvegicus; test: Stimulatory activity at sGC in Sprague-Dawley rat thoracic aorta assessed as inhibition of norepinephrine-induced contraction at 1 uM by JZ100 strain guages based isometric analysis relative to control; parameters: scale not given: the % may be the effect or the level left
# [1] = Stimulatory activity at sGC in Sprague-Dawley rat thoracic aorta assessed as inhibition of norepinephrine-induced contraction by JZ100 strain guages based isometric analysis
# Heart [2] = test: Cardioprotective activity in Langendorff perfused Sprague-Dawley rat heart assessed as reduction of coronary perfusion pressure; assay type: functional, tissue-based
# Heart [3] = test: Cardioprotective activity in Langendorff perfused Sprague-Dawley rat heart assessed as increase in coronary artery relaxation; assay type: functional, tissue-based
# Heart [4] = test: Cardioprotective activity in Langendorff perfused Sprague-Dawley rat heart assessed as increase in coronary artery blood flow; assay type: functional, tissue-based
# Heart [5] = test: Cardioprotective activity in Langendorff perfused Sprague-Dawley rat heart assessed as reduction of coronary perfusion pressure at 0.01 to 3 uM relative to control; assay type: functional
# [6] = AUC (0 to infinity) in male Beagle dog at 4.5 mg/kg, po by LC-MS/MS analysis; assay type: ADME, organism-based, Canis lupus familiaris; parameters: dose 4.5 mg/kg, route oral, time infinity; details: in vivo
# [7] = Tmax in male Beagle dog at 1.5 mg/kg, po by LC-MS/MS analysis; assay type: ADME, organism-based, Canis lupus familiaris; details: in vivo
# [8] = Half life in male Beagle dog at 0.5 mg/kg, po by LC-MS/MS analysis; assay type: ADME, organism-based, Canis lupus familiaris; details: in vivo
# [9] = Half life in male Beagle dog at 1.5 mg/kg, po by LC-MS/MS analysis; assay type: ADME, organism-based, Canis lupus familiaris; details: in vivo
# [10] = AUC (0 to infinity) in female Beagle dog at 0.5 mg/kg, po by LC-MS/MS analysis; assay type: ADME, organism-based, Canis lupus familiaris; parameters: dose 0.5 mg/kg, route oral, time infinity; details: in vivo
# [11] = Apparent clearance in male Beagle dog at 4.5 mg/kg, po by LC-MS/MS analysis; assay type: ADME, organism-based, Canis lupus familiaris; details: in vivo, read-out: CL(app) (converted)
# [12] = Oral bioavailability (0 to infinity) in male Beagle dog at 0.5 mg/kg by LC-MS/MS analysis; assay type: ADME, organism-based, Canis lupus familiaris; details: in vivo
# [13] = Apparent volume of distribution in male Beagle dog at 4.5 mg/kg, po by LC-MS/MS analysis; assay type: ADME, organism-based, Canis lupus familiaris; details: in vivo
# [14] = Cmax in male Beagle dog at 0.5 mg/kg, po by LC-MS/MS analysis; assay type: ADME, organism-based, Canis lupus familiaris; parameters: dose 0.5 mg/kg, route oral; details: in vivo
# [15] = Cmax in male Beagle dog at 1.5 mg/kg, po by LC-MS/MS analysis; assay type: ADME, organism-based, Canis lupus familiaris; parameters: dose 1.5 mg/kg, route oral; details: in vivo
# [16] = Apparent volume of distribution in female Beagle dog at 0.5 mg/kg, po; assay type: ADME, organism-based, Canis lupus familiaris; details: in vivo
# [17] = Apparent volume of distribution in male Beagle dog at 0.5 mg/kg, po by LC-MS/MS analysis; assay type: ADME, organism-based, Canis lupus familiaris; details: in vivo
# [18] = Apparent clearance in female Beagle dog at 0.5 mg/kg, po by LC-MS/MS analysis; assay type: ADME, organism-based, Canis lupus familiaris; details: in vivo, read-out: CL(app) (converted)
# [19] = Cmax in female Beagle dog at 0.5 mg/kg, po by LC-MS/MS analysis; assay type: ADME, organism-based, Canis lupus familiaris; parameters: dose 0.5 mg/kg, route oral; details: in vivo
# [20] = Tmax in female Beagle dog at 0.5 mg/kg, po by LC-MS/MS analysis; assay type: ADME, organism-based, Canis lupus familiaris; details: in vivo
# [21] = Half life in male Beagle dog at 4.5 mg/kg, po by LC-MS/MS analysis; assay type: ADME, organism-based, Canis lupus familiaris; details: in vivo
# [22] = AUC (0 to infinity) in male Beagle dog at 0.5 mg/kg, po by LC-MS/MS analysis; assay type: ADME, organism-based, Canis lupus familiaris; parameters: dose 0.5 mg/kg, route oral, time infinity; details: in vivo
# [23] = Tmax in male Beagle dog at 0.5 mg/kg, po by LC-MS/MS analysis; assay type: ADME, organism-based, Canis lupus familiaris; details: in vivo
# [24] = Cmax in male Beagle dog at 4.5 mg/kg, po by LC-MS/MS analysis; assay type: ADME, organism-based, Canis lupus familiaris; parameters: dose 4.5 mg/kg, route oral; details: in vivo
# Heart [25] = test: Potency index. ratio of EC50 of riociguat to EC50 of compound for cardioprotective activity in Langendorff perfused Sprague-Dawley rat heart assessed as increase in coronary artery relaxation; assay type: functional
# [26] = Half life in female Beagle dog at 0.5 mg/kg, po by LC-MS/MS analysis; assay type: ADME, organism-based, Canis lupus familiaris; details: in vivo
# [27] = Apparent clearance in male Beagle dog at 0.5 mg/kg, po by LC-MS/MS analysis; assay type: ADME, organism-based, Canis lupus familiaris; details: in vivo, read-out: CL(app) (converted)
# [28] = Apparent clearance in male Beagle dog at 1.5 mg/kg, po by LC-MS/MS analysis; assay type: ADME, organism-based, Canis lupus familiaris; details: in vivo, read-out: CL(app) (converted)
# [29] = AUC (0 to infinity) in male Beagle dog at 1.5 mg/kg, po by LC-MS/MS analysis; assay type: ADME, organism-based, Canis lupus familiaris; parameters: dose 1.5 mg/kg, route oral, time infinity; details: in vivo
# [30] = Tmax in male Beagle dog at 4.5 mg/kg, po by LC-MS/MS analysis; assay type: ADME, organism-based, Canis lupus familiaris; details: in vivo
# [31] = Apparent volume of distribution in male Beagle dog at 1.5 mg/kg, po by LC-MS/MS analysis; assay type: ADME, organism-based, Canis lupus familiaris; details: in vivo
smiles,measurement,setting,value
CCOC(=O)N(C)c1c(N)nc(-c2nn(Cc3cncc(C)c3)c3ncccc23)nc1N,Activity,Rattus norvegicus,47.4%
CC(C)OC(=O)Nc1c(N)nc(-c2nn(Cc3ccc(F)s3)c3ncccc23)nc1N,Activity,Rattus norvegicus,17.1%
COC(=O)N(C)c1c(N)nc(-c2nn(Cc3cccnc3F)c3ncccc23)nc1N,Activity,Rattus norvegicus,21.1%
CC(C)OC(=O)N(C)c1c(N)nc(-c2nn(Cc3ccc(F)s3)c3ncccc23)nc1N,Activity,Rattus norvegicus,38.1%
CCN(C(=O)OC)c1c(N)nc(-c2nn(Cc3ccc(F)s3)c3ncccc23)nc1N,Activity,Rattus norvegicus,51.9%
CCN(C(=O)OC)c1c(N)nc(-c2nn(Cc3cncc(C)c3)c3ncccc23)nc1N,Activity,Rattus norvegicus,2.8%
CCOC(=O)N(C)c1c(N)nc(-c2nn(Cc3ccc(F)s3)c3ncccc23)nc1N,Activity,Rattus norvegicus,38.4%
CCOC(=O)N(CC)c1c(N)nc(-c2nn(Cc3ccc(F)s3)c3ncccc23)nc1N,Activity,Rattus norvegicus,48.4%
CCOC(=O)N(C)c1c(N)nc(-c2nn(Cc3sccc3F)c3ncccc23)nc1N,EC50,[1],0.38 µM
same,Activity,Rattus norvegicus,86.6%
COC(=O)Nc1c(N)nc(-c2nn(Cc3cccnc3F)c3ncccc23)nc1N,Activity,Rattus norvegicus,11.8%
Cc1cncc(Cn2nc(-c3nc(N)c(N(C)C(=O)OC(C)C)c(N)n3)c3cccnc32)c1,Activity,Rattus norvegicus,32.4%
CCN(C(=O)OC(C)C)c1c(N)nc(-c2nn(Cc3ccc(F)s3)c3ncccc23)nc1N,Activity,Rattus norvegicus,41%
CCOC(=O)Nc1c(N)nc(-c2nn(Cc3ccc(F)s3)c3ncccc23)nc1N,Activity,Rattus norvegicus,57.4%
CC(C)OC(=O)Nc1c(N)nc(-c2nn(Cc3cccnc3F)c3ncccc23)nc1N,Activity,Rattus norvegicus,12.5%
COC(=O)Nc1c(N)nc(-c2nn(Cc3ccc(F)s3)c3ncccc23)nc1N,Activity,Rattus norvegicus,30%
COC(=O)N(C)c1c(N)nc(-c2nn(Cc3ccccc3F)c3ncccc23)nc1N [RIOCIGUAT],EC50,[1],0.3 µM
same,EC50,Heart [2],0.27 µM
same,Activity,Rattus norvegicus,88.9%
CCOC(=O)N(CC)c1c(N)nc(-c2nn(Cc3sccc3F)c3ncccc23)nc1N,EC50,[1],0.24 µM
same,Activity,Rattus norvegicus,85.6%
CC(C)OC(=O)N(C)c1c(N)nc(-c2nn(Cc3sccc3F)c3ncccc23)nc1N,Activity,Heart [3],Active
same,EC50,[1],0.18 µM
same,Activity,Heart [4],Active
same,Activity,Heart [2],Dose-dependent effect
same,EC50,Heart [2],0.11 µM
same,Activity,Rattus norvegicus,75.1%
same,Emax,Heart [5],60%
CCOC(=O)Nc1c(N)nc(-c2nn(Cc3sccc3F)c3ncccc23)nc1N,Activity,Rattus norvegicus,27.3%
CCN(C(=O)OC(C)C)c1c(N)nc(-c2nn(Cc3sccc3F)c3ncccc23)nc1N,EC50,[1],0.87 µM
same,Activity,Rattus norvegicus,76.2%
CCN(C(=O)OC(C)C)c1c(N)nc(-c2nn(Cc3cncc(C)c3)c3ncccc23)nc1N,Activity,Rattus norvegicus,0%
COC(=O)N(C)c1c(N)nc(-c2nn(Cc3cccs3)c3ncccc23)nc1N,Activity,Rattus norvegicus,45.1%
COC(=O)N(C)c1c(N)nc(-c2nn(Cc3ccc(F)s3)c3ncccc23)nc1N,Activity,Rattus norvegicus,39.2%
COC(=O)N(C)c1c(N)nc(-c2nn(Cc3cncc(C)c3)c3ncccc23)nc1N,Activity,Rattus norvegicus,31%
CC(C)OC(=O)Nc1c(N)nc(-c2nn(Cc3sccc3F)c3ncccc23)nc1N,Activity,Rattus norvegicus,42.3%
CCN(C(=O)OC(C)C)c1c(N)nc(-c2nn(Cc3cccnc3F)c3ncccc23)nc1N,Activity,Rattus norvegicus,9%
CCOC(=O)N(CC)c1c(N)nc(-c2nn(Cc3cncc(C)c3)c3ncccc23)nc1N,Activity,Rattus norvegicus,3%
COC(=O)N(C)c1c(N)nc(-c2nn(Cc3sccc3F)c3ncccc23)nc1N,AUC(0-inf),[6],0.874 µg·h/mL
same,Tmax,[7],0.75 h
same,half-life,[8],2.04 h
same,half-life,[9],3.24 h
same,AUC(0-inf),[10],0.198 µg·h/mL
same,CL/F,[11],6.18 L/h/kg
same,bioavailability,[12],80%
same,Vz,[13],41.14 L/kg
same,Cmax,[14],0.0838 µg/mL
same,Activity,Heart [3],Active
same,Cmax,[15],0.106 µg/mL
same,EC50,[1],0.11 µM
same,Vz,[16],6.38 L/kg
same,Vz,[17],7.9 L/kg
same,CL/F,[18],2.54 L/h/kg
same,Cmax,[19],0.0724 µg/mL
same,Tmax,[20],1.25 h
same,half-life,[21],3.77 h
same,AUC(0-inf),[22],0.213 µg·h/mL
same,Tmax,[23],0.6 h
same,Activity,Heart [4],Active
same,Cmax,[24],0.175 µg/mL
same,Ratio EC50,Heart [25],3
same,half-life,[26],1.75 h
same,CL/F,[27],2.46 L/h/kg
same,CL/F,[28],5.76 L/h/kg
same,Activity,Heart [2],Dose-dependent effect
same,EC50,Heart [2],0.086 µM
same,Activity,Rattus norvegicus,87%
same,AUC(0-inf),[29],0.373 µg·h/mL
same,Emax,Heart [5],60%
same,Tmax,[30],1.55 h
same,Vz,[31],43.47 L/kg
CCN(C(=O)OC)c1c(N)nc(-c2nn(Cc3sccc3F)c3ncccc23)nc1N,Activity,Heart [3],Active
same,EC50,[1],0.21 µM
same,Activity,Heart [4],Active
same,Activity,Heart [2],Dose-dependent effect
same,EC50,Heart [2],0.18 µM
same,Activity,Rattus norvegicus,85.4%
same,Emax,Heart [5],60%
CC(C)OC(=O)N(C)c1c(N)nc(-c2nn(Cc3cccnc3F)c3ncccc23)nc1N,Activity,Rattus norvegicus,1.9%
COC(=O)Nc1c(N)nc(-c2nn(Cc3sccc3F)c3ncccc23)nc1N,Activity,Rattus norvegicus,14.3%
